Test results reported in patent US11279683B2, “Thiophene derivatives as antiviral agents” (ENYO PHARMA, priority 2016, dated 2022).
Like-named read-outs stand apart in the source and are kept apart here.

Test system: H1N1 (influenza A/New Caledonia/20/99)
Assay: microbe, parasite or virus in culture
Assay type: cell-based
[1] = Influenza A virus, H1N1, A549, 48 h

Row | Compound | IC50 [1] [µM] | IC50 [µM]
1 | O=C(Nc1ccc(-c2ccccc2)cc1)c1c(NC(=O)C2CCCCC2C(=O)O)sc2c1CCC2 (stereo not drawn) [Compound 10, 2-[[3-[(4-Phenylphenyl)carbamoyl]-5,6-dihydro-4H-cyclopenta[b]thiophen-2-yl]carbamoyl]cyclohexanecarboxylic acid] | 2.38 | 
2 | O=C(Nc1ccc(F)c(F)c1)c1c(NC(=O)C2CCCCC2C(=O)O)sc2c1CCC2 (stereo not drawn) [Compound 16, 2-[[3-[(3,4-Difluorophenyl)carbamoyl]-5,6-dihydro-4H-cyclopenta[b]thiophen-2-yl]carbamoyl]cyclohexanecarboxylic acid] | 10.4 | 
3 | O=C(Nc1ccc(Cl)cc1)c1c(NC(=O)N2CCCCC2C(=O)O)sc2c1CCC2 (stereo not drawn) [Compound 89, 1-[[3-[(4-chlorophenyl)carbamoyl]-5,6-dihydro-4H-cyclopenta[b]thiophen-2-yl]carbamoyl]piperidine-2-carboxylic acid] | 8.8 | 
4 | CC(=O)N1CCC1C(=O)Nc1sc2c(c1C(=O)Nc1ccc(Cl)cc1)CCC2 (stereo not drawn) [Compound 84, 1-acetyl-N-[3-[(4-chlorophenyl)carbamoyl]-5,6-dihydro-4H-cyclopenta[b]thiophen-2-yl]azetidine-2-carboxamide] | 29.6 | 
5 | O=C(Nc1ccc(Cl)cc1)c1c(NC(=O)[C@H]2CCCC[C@H]2C(=O)NO)sc2c1CCC2 (stereo in doubt) [Compound 90, N-(4-chlorophenyl)-2-[[2-(hydroxycarbamoyl)cyclohexanecarbonyl]amino]-5,6-dihydro-4H-cyclopenta[b]thiophene-3-carboxamide] | 9 | 
6 | Cc1ccc(NC(=O)c2c(NC(=O)C3CC=CCC3C(=O)O)sc3c2CCCC3)cc1 (stereo not drawn) [Compound 60, 6-[[3-(p-Tolylcarbamoyl)-4,5,6,7-tetrahydrobenzothiophen-2-yl]carbamoyl]cyclohex-3-ene-1-carboxylic acid] | 54.8 | 
7 | O=C(Nc1ccc(Cl)cc1)c1c(N2C(=O)C3CCCCC3C2=O)sc2c1CCC2 (stereo not drawn) [Compound 54, N-(4-Chlorophenyl)-2-(1,3-dioxo-3a,4,5,6,7,7a-hexahydroisoindol-2-yl)-5,6-dihydro-4H-cyclopenta[b]thiophene-3-carboxamide] | 5.98 | 
8 | O=C(Nc1cccc(Cl)c1)c1c(NC(=O)C2CCCCC2C(=O)O)sc2c1CCC2 (stereo not drawn) [Compound 17, 2-[[3-[(3-Chlorophenyl)carbamoyl]-5,6-dihydro-4H-cyclopenta[b]thiophen-2-yl]carbamoyl]cyclohexanecarboxylic acid] | 4.88 | 
9 | O=C(O)CCC(=O)Nc1sc2c(c1C(=O)Nc1ccc(Cl)cc1)CCC2 [Compound 50, 4-[[3-[(4-Chlorophenyl)carbamoyl]-5,6-dihydro-4H-cyclopenta[b]thiophen-2-yl]amino]-4-oxo-butanoic acid] | 33.2 | 
10 | O=C(Nc1cnc(Cl)cn1)c1c(NC(=O)C2CCCCC2C(=O)O)sc2c1CCC2 (stereo not drawn) [Compound 26, 2-[[3-[(5-Chloropyrazin-2-yl)carbamoyl]-5,6-dihydro-4H-cyclopenta[b]thiophen-2-yl]carbamoyl]cyclohexanecarboxylic acid] | 19.3 | 
11 | O=C(O)c1ccccc1C(=O)Nc1sc2c(c1C(=O)Nc1ccc(Cl)cc1)CCC2 [Compound 44, 2-[[3-[(4-Chlorophenyl)carbamoyl]-5,6-dihydro-4H-cyclopenta[b]thiophen-2-yl]carbamoyl]benzoic acid] | 21.6 | 
12 | CC(C)(C)C1CCc2c(sc(NC(=O)[C@H]3CCCC[C@H]3C(=O)O)c2C(=O)Nc2ccc(Cl)cc2)C1 (stereo in doubt) [Compound 79, 2-[[6-tert-butyl-3-[(4-chlorophenyl)carbamoyl]-4,5,6,7-tetrahydrobenzothiophen-2-yl]carbamoyl]cyclohexanecarboxylic acid] | 1.85 | 
13 | O=C(Nc1ccc(Cl)cc1)c1c(NC(=O)C2CCCCC2C(=O)O)sc2c1CCC2 (stereo not drawn) [Compound 49, 2-[[3-[(4-Chlorophenyl)carbamoyl]-5,6-dihydro-4H-cyclopenta[b]thiophen-2-yl]carbamoyl]cyclohexane-trans-carboxylic acid] | 12.2 | 
14 | NS(=O)(=O)N1CCCCC1C(=O)Nc1sc2c(c1C(=O)Nc1ccc(Cl)cc1)CCC2 (stereo not drawn) [Compound 80, N-[3-[(4-chlorophenyl)carbamoyl]-5,6-dihydro-4H-cyclopenta[b]thiophen-2-yl]-1-sulfamoyl-piperidine-2-carboxamide] | 2.25 | 
15 | O=C(O)CC1(CC(=O)Nc2sc3c(c2C(=O)Nc2ccc(Cl)cc2)CCC3)CCCC1 [Compound 45, 2-[1-[2-[[3-[(4-Chlorophenyl)carbamoyl]-5,6-dihydro-4H-cyclopenta[b]thiophen-2-yl]amino]-2-oxo-ethyl]cyclopentyl]acetic acid] | 8.1 | 
16 | CO[C@H]1CC[C@H](NC(=O)c2c(NC(=O)C3CCCCC3C(=O)O)sc3c2CCC3)CC1 (stereo partly drawn) [Compound 8, 2-[[3-[(Trans-4-methoxycyclohexyl)carbamoyl]-5,6-dihydro-4H-cyclopenta[b]thiophen-2-yl]carbamoyl]cyclohexanecarboxylic acid] | 27.4 | 
17 | O=C(NCc1cccc(Cl)c1)c1c(NC(=O)C2CCCCC2C(=O)O)sc2c1CCC2 (stereo not drawn) [Compound 11, 2-[[3-[(3-Chlorophenyl)methylcarbamoyl]-5,6-dihydro-4H-cyclopenta[b]thiophen-2-yl]carbamoyl]cyclohexanecarboxylic acid] | 8.63 | 
18 | COc1cccc(NC(=O)c2c(NC(=O)C3CCCCC3C(=O)O)sc3c2CCC3)c1 (stereo not drawn) [Compound 64, 2-[[3-[(3-Methoxyphenyl)carbamoyl]-5,6-dihydro-4H-cyclopenta[b]thiophen-2-yl]carbamoyl]cyclohexanecarboxylic acid] | 14.1 | 
19 | Cc1ccc(NC(=O)c2c(NC(=O)C3CCCCC3C(=O)O)sc3c2CCC3)cc1 (stereo not drawn) [Compound 66, 2-[[3-(p-Tolylcarbamoyl)-5,6-dihydro-4H-cyclopenta[b]thiophen-2-yl]carbamoyl]cyclohexanecarboxylic acid] | 11.7 | 
20 | CC(C)(CC(=O)O)CC(=O)Nc1sc2c(c1C(=O)Nc1ccc(Cl)cc1)CCC2 [Compound 47, 5-[[3-[(4-Chlorophenyl)carbamoyl]-5,6-dihydro-4H-cyclopenta[b]thiophen-2-yl]amino]-3,3-dimethyl-5-oxo-pentanoic acid] | 22.7 | 
21 | O=C(NCc1ccc(Cl)cc1)c1c(NC(=O)C2CCCCC2C(=O)O)sc2c1CCC2 (stereo not drawn) [Compound 5, 2-[[3-[(4-Chlorophenyl)methylcarbamoyl]-5,6-dihydro-4H-cyclopenta[b]thiophen-2-yl]carbamoyl]cyclohexanecarboxylic acid] | 10.7 | 
22 | O=C(Nc1ccc(Cl)cc1)c1c(NC(=O)C2CCCCC2C(=O)O)sc2c1CCCC2 (stereo not drawn) [Compound 61, 2-[[3-[(4-Chlorophenyl)carbamoyl]-4,5,6,7-tetrahydrobenzothiophen-2-yl]carbamoyl]cyclohexane-cis-carboxylic acid] | 8.59 | 
23 | 2-[[6-tert-butoxycarbonyl-3-[(4-chlorophenyl)carbamoyl]-5,7-dihydro-4H-thieno[2,3-c]pyridin-2-yl]carbamoyl]cyclohexanecarboxylic acid [Compound 91] |  | 10
24 | O=C(Nc1ccc(N2CCOCC2)cc1)c1c(NC(=O)C2CCCCC2C(=O)O)sc2c1CCC2 (stereo not drawn) [Compound 15, 2-[[3-[(4-Morpholinophenyl)carbamoyl]-5,6-dihydro-4H-cyclopenta[b]thiophen-2-yl]carbamoyl]cyclohexanecarboxylic acid] | 11.2 | 
